Measurements reported in ChEMBL document CHEMBL2074308, “5'-Amino acid esters of antiviral nucleosides, acyclovir, and AZT are absorbed by the intestinal PEPT1 peptide transporter” (Pharm Res, 1998).

T1: Solute carrier family 15 member 1 (Homo sapiens, UniProt P46059)
T1 sequence (P46059 whole entry): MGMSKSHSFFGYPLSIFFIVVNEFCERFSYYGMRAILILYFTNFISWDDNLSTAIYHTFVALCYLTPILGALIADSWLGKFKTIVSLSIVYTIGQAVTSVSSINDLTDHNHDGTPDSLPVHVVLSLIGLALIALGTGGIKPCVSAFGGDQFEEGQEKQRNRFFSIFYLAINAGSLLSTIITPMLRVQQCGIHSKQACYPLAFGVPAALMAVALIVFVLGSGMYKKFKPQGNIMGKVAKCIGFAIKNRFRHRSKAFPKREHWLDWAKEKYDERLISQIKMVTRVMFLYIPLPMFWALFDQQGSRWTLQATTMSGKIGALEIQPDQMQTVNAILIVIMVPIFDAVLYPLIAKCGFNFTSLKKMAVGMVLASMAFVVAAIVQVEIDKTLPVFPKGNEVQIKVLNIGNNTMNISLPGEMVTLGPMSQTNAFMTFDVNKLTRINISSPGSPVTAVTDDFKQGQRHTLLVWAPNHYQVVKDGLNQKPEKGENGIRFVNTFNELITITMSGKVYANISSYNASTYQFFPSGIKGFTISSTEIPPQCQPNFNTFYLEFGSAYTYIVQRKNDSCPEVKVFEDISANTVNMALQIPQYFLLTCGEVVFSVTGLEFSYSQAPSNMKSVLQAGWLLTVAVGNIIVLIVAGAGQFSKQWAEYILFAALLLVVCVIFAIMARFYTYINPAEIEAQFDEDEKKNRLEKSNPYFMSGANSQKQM

B1: Solute carrier family 15 member 1 (Homo sapiens), P46059 (protein)
chain: MGMSKSHSFFGYPLSIFFIVVNEFCERFSYYGMRAILILYFTNFISWDDNLSTAIYHTFVALCYLTPILGALIADSWLGKFKTIVSLSIVYTIGQAVTSVSSINDLTDHNHDGTPDSLPVHVVLSLIGLALIALGTGGIKPCVSAFGGDQFEEGQEKQRNRFFSIFYLAINAGSLLSTIITPMLRVQQCGIHSKQACYPLAFGVPAALMAVALIVFVLGSGMYKKFKPQGNIMGKVAKCIGFAIKNRFRHRSKAFPKREHWLDWAKEKYDERLISQIKMVTRVMFLYIPLPMFWALFDQQGSRWTLQATTMSGKIGALEIQPDQMQTVNAILIVIMVPIFDAVLYPLIAKCGFNFTSLKKMAVGMVLASMAFVVAAIVQVEIDKTLPVFPKGNEVQIKVLNIGNNTMNISLPGEMVTLGPMSQTNAFMTFDVNKLTRINISSPGSPVTAVTDDFKQGQRHTLLVWAPNHYQVVKDGLNQKPEKGENGIRFVNTFNELITITMSGKVYANISSYNASTYQFFPSGIKGFTISSTEIPPQCQPNFNTFYLEFGSAYTYIVQRKNDSCPEVKVFEDISANTVNMALQIPQYFLLTCGEVVFSVTGLEFSYSQAPSNMKSVLQAGWLLTVAVGNIIVLIVAGAGQFSKQWAEYILFAALLLVVCVIFAIMARFYTYINPAEIEAQFDEDEKKNRLEKSNPYFMSGANSQKQM

What was measured:
[1] = target: T1, Solute carrier family 15 member 1; assay: TP_TRANSPORTER: inhibition of Gly-Sar uptake (Gly-Sar: 20 uM) in PEPT1-expressing CHO cells; format: functional, cell-based
[2] = target: T1, Solute carrier family 15 member 1; assay: TP_TRANSPORTER: inhibition of Gly-Sar uptake, L-form (Gly-Sar: 20 uM) in PEPT1-expressing CHO cells; format: functional, cell-based
[3] = target: T1, Solute carrier family 15 member 1; assay: TP_TRANSPORTER: inhibition of Gly-Sar uptake, D-form (Gly-Sar: 20 uM) in PEPT1-expressing CHO cells; format: functional, cell-based
[4] = substrate: CC(C)[C@H](N)C(=O)OCCOCn1cnc2c(=O)nc(N)[nH]c21; settings: Caco-2
Description: TP_TRANSPORTER: transepithelial transport (apical to basal), L-form in Caco-2 cells

| Molecule | IC50 [1] [µM] | IC50 [2] [µM] | IC50 [3] [µM] | Km [4] [µM] |
| --- | --- | --- | --- | --- |
| CC1=C(C(=O)O)N2C(=O)[C@@H](NC(=O)[C@H](N)C3=CCC=CC3)[C@H]2SC1 [CEPHRADINE] | 15000 |  |  |  |
| CCOC(=O)[C@H](CCc1ccccc1)N[C@@H](C)C(=O)N1CCC[C@H]1C(=O)O [ENALAPRIL] | 15000 |  |  |  |
| NCC(=O)OCCOCn1cnc2c(=O)[nH]c(N)nc21 [GLYCYL ESTER OF ACYCLOVIR] | 1400 |  |  |  |
| CC(C)[C@H](N)C(=O)OCCOCn1cnc2c(=O)[nH]c(N)nc21 [VALACYCLOVIR] | 400 | 1100 | 3400 |  |
| B1 |  |  |  | 292 |
